The numbers were not newly measured in US7211580B2, “Compounds, compositions, and methods” (Cytokinetics, Incorporated, priority 2002, dated 2007), which cites them from elsewhere.

This series relates to A549 cells. Conditions: concentration that decreases rate of cell growth by fifty percent.

For orientation: GI50 means the concentration that inhibits growth by half. Consider `COc1cccc2c1C(=O)c1c(O)c3c(c(O)c1C2=O)C[C@@](O)(C(=O)CO)C[C@@H]3O[C@H]1C[C@H](N)[C@H](O)[C@H](C)O1` [doxorubicin], for which the concentration for 50% growth inhibition (GI50) was 0.063 µM.

For the molecule `NC(=O)NO` [hydroxyurea], the 50% growth inhibitory concentration (GI50) is 500 µM.

Consider `CC(=O)O[C@H]1C(=O)[C@@]2(C)[C@H]([C@H](OC(=O)c3ccccc3)[C@]3(O)C[C@H](OC(=O)[C@H](O)[C@@H](NC(=O)c4ccccc4)c4ccccc4)C(C)=C1C3(C)C)[C@]1(OC(C)=O)CO[C@@H]1C[C@@H]2O` [paclitaxel], for which the GI50 is 0.004 µM.

`O=c1[nH]cc(F)c(=O)[nH]1` [5-fluorouracil]: the concentration for 50% growth inhibition (GI50) was 1 µM.
